In patent US12673975B2, “Cyclic peptide, cell scaffold material, cell separating material, and medium” (FUJIFILM Corporation, priority 2019, dated 2026):
Like-named read-outs stand apart in the source and are kept apart here. Starred links: 1 amine or outer side, 2 acyl side, 3 side chain; linkers in the order of their positions; H or OH if unused. Positions of bridges follow the written chain, without caps; N, C: chain ends. Non-standard residues stand in square brackets, D forms with d. Residues, ends and D or L forms follow the SMILES beside them. hCys = N[C@@H](CCS)C(=O)O; Dab = NCC[C@H](N)C(=O)O; Dap = NC[C@H](N)C(=O)O; X1 = O=C(C[*:2])[*:1]; X2 = O=C(C[*:1])[*:2]

Key:
[1] = target: human integrin αvβ5 (Homo sapiens, UniProt P06756+P18084); experiment: Evaluation of integrin binding property (surface plasmon resonance, Biacore 3000, immobilized cyclic peptide)
Summary of the method: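 SPR with cyclic peptide amine-coupled via EDC/NHS to a CM5 chip, blank channel as reference. Integrin αvβ5 at 30, 100, 300 and 1,000 nM injected 10 min at 25 °C in HEPES buffer pH 7.4 with 5 mM MgCl2, 30 min buffer flow, EDTA regeneration; Kd from reference-subtracted signals, graded by category.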

[2] = Evaluation of molecule stability (alkali treatment, residual rate by LC/MS); assay type: physicochemical; conditions: for Performance evaluation: Stability (residual rate of cyclic peptide after alkali treatment): 500 μM peptide aqueous solution plus equivalent of 1 M sodium hydroxide, 15° C., 3 hours, LC/MS peak area; for Stability (molecule stability, residual rate of the cyclic peptide rank): alkali treatment, residual rate by LC/MS
Summary of the method: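 500 μM aqueous cyclic peptide mixed with an equal volume of 1 M NaOH and held 3 h at 15 °C. Residual rate is total LC/MS peak area after treatment relative to untreated (100%), using a C18 column, pH 3 ammonium formate/acetonitrile gradient, 45 °C, ESI±.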

[3] = SPR, 25° C., HEPES buffer with 5 mM magnesium chloride, integrin 30-1,000 nM, read-out: Performance evaluation: Binding activity (dissociation constant between the cyclic peptide and human integrin αvβ5)
[4] = surface plasmon resonance, immobilized cyclic peptide, human integrin αvβ5, read-out: Binding activity (integrin binding property, dissociation constant rank)

human integrin αvβ5, sequence (P06756 31-1048): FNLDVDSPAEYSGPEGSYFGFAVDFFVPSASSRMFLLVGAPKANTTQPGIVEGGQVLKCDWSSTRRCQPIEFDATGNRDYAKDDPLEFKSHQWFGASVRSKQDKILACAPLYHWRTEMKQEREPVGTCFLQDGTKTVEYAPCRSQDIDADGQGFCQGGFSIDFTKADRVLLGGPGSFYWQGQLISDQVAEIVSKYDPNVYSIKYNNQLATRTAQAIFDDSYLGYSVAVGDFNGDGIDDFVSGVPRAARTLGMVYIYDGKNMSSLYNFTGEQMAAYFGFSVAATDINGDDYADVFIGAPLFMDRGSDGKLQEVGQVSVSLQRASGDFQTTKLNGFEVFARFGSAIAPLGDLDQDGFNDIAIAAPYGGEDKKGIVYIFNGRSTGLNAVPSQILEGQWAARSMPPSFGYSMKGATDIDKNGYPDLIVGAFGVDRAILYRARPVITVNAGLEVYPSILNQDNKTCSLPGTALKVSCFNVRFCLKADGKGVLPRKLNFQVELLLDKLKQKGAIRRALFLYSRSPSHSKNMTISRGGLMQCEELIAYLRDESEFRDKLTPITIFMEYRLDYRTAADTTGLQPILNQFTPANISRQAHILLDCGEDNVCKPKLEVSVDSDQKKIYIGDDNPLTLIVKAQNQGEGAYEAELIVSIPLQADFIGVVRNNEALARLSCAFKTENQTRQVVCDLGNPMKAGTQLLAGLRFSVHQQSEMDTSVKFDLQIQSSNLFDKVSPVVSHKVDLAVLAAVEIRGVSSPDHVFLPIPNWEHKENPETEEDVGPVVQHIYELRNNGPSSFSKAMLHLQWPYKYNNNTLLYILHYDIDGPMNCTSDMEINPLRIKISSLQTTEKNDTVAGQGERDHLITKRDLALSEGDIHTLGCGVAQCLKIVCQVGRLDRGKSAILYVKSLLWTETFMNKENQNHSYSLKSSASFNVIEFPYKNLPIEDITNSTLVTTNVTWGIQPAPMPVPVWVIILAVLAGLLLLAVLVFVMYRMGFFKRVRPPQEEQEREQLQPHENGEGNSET
human integrin αvβ5, sequence (P18084 24-799): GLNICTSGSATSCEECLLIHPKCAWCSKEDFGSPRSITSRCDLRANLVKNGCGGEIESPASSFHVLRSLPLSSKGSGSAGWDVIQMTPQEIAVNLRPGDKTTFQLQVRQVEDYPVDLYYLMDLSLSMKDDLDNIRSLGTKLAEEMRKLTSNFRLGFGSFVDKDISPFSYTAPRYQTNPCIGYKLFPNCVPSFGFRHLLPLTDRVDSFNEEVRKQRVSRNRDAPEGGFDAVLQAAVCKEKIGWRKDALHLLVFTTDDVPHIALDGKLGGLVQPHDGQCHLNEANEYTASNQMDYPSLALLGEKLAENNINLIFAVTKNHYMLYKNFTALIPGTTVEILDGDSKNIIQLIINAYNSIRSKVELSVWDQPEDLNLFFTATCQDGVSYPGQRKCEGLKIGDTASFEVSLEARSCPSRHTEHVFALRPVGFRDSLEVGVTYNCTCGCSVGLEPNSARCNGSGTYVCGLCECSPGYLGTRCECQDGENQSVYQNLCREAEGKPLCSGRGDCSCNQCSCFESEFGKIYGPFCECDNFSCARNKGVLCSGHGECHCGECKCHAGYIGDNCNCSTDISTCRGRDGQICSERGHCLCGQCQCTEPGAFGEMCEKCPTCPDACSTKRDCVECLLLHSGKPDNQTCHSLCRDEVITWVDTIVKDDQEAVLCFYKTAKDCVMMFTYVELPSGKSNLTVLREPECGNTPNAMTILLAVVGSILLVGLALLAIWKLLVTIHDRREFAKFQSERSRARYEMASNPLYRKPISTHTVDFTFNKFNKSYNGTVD

Row | SMILES | Kd [1, 3] | Kd [1, 4] | Performance evaluation: Stability (residual rate of cyclic peptide after alkali treatment) [2] | Stability (molecule stability, residual rate of the cyclic peptide rank) [2]
1 | C[C@H](NC(=O)[C@H](CCCCN)NC(=O)[C@H](CCCCN)NC(=O)[C@@H](N)CCCCN)C(=O)N[C@H]1CCSCC(=O)NCC[C@@H](C(=O)O)NC(=O)[C@H](CCCNC(=N)N)NC(=O)[C@H](Cc2ccc(O)cc2)NC(=O)[C@H](CC(N)=O)NC(=O)[C@H](CC(=O)O)NC(=O)CNC(=O)[C@H](CCCNC(=N)N)NC(=O)[C@@H]2CCCN2C(=O)[C@H](CCC(=O)O)NC1=O [Cyclic peptide 45, KKKA-(Hcy)-EPRGDNYR(Dab(acetyl))] (H-KKKA[hCys]EPRGDNYR[Dab]-OH; linker 5-14 via X2) | 50 to 100 nM |  | A (The residual rate of the cyclic peptide is 70% or more.) | 
2 | CC[C@H](C)[C@@H]1NC(=O)[C@H](C)NC(=O)[C@@H](NC(=O)CNC(=O)[C@H](CCCCN)NC(=O)[C@H](CCCCN)NC(=O)[C@@H](N)CCCCN)CCSCC(=O)NCC[C@@H](C(=O)N[C@@H](C)C(=O)O)NC(=O)[C@H](C)NC(=O)[C@H](CCCNC(=N)N)NC(=O)[C@H](Cc2ccccc2)NC(=O)[C@H](CC(N)=O)NC(=O)[C@H](CC(=O)O)NC(=O)CNC(=O)[C@H](CCCNC(=N)N)NC(=O)[C@@H]2CCCN2C1=O [Cyclic peptide 20, KKKG-(Hcy)-AIPRGDNFRA(Dab(acetyl))A] (H-KKKG[hCys]AIPRGDNFRA[Dab]A-OH; linker 5-16 via X2) | 50 to 100 nM |  | A (The residual rate of the cyclic peptide is 70% or more.) | 
3 | CC(C)[C@@H]1NC(=O)[C@@H](NC(=O)[C@H](CCCCN)NC(=O)[C@H](CCCCN)NC(=O)[C@@H](N)CCCCN)CCSCC(=O)NCC[C@@H](C(=O)N[C@@H](C)C(=O)O)NC(=O)[C@H](CCCNC(=N)N)NC(=O)[C@H](Cc2ccccc2)NC(=O)[C@H](CC(N)=O)NC(=O)[C@H](CC(=O)O)NC(=O)CNC(=O)[C@H](CCCNC(=N)N)NC(=O)[C@@H]2CCCN2C1=O [Cyclic peptide 21, KKK-(Hcy)-VPRGDNFR(Dab(acetyl))A] (H-KKK[hCys]VPRGDNFR[Dab]A-OH; linker 4-13 via X2) | < 50 nM |  | A (The residual rate of the cyclic peptide is 70% or more.) | 
4 | CC(C)[C@@H]1NC(=O)[C@@H](NC(=O)[C@H](CCCCN)NC(=O)[C@H](CCCCN)NC(=O)[C@@H](N)CCCCN)CCSCC(=O)NCC[C@@H](C(=O)O)NC(=O)[C@H](CO)NC(=O)[C@H](Cc2ccccc2)NC(=O)[C@H]([C@@H](C)O)NC(=O)[C@H](CC(=O)O)NC(=O)CNC(=O)[C@H](CCCNC(=N)N)NC(=O)[C@@H]2CCCN2C1=O [Cyclic peptide 153, KKK-(Hcy)-VPRGDTFS(Dab(acetyl))] (H-KKK[hCys]VPRGDTFS[Dab]-OH; linker 4-13 via X2) |  | < 50 nM |  | A (The residual rate of the cyclic peptide is 70% or more.)
5 | CC[C@H](C)[C@@H]1NC(=O)[C@@H](NC(=O)[C@H](CCCCN)NC(=O)[C@H](CCCCN)NC(=O)[C@@H](N)CCCCN)CCSCC(=O)NCC[C@@H](C(=O)N[C@@H](C)C(=O)O)NC(=O)[C@H](C)NC(=O)[C@H](Cc2ccccc2)NC(=O)[C@H](CO)NC(=O)[C@H](CC(=O)O)NC(=O)CNC(=O)[C@H](CCCNC(=N)N)NC(=O)[C@@H]2CCCN2C1=O [Cyclic peptide 163, KKK-(Hcy)-IPRGDSFA(Dab(acetyl))A] (H-KKK[hCys]IPRGDSFA[Dab]A-OH; linker 4-13 via X2) |  | < 50 nM |  | A (The residual rate of the cyclic peptide is 70% or more.)
6 | C[C@@H]1NC(=O)[C@H](Cc2ccccc2)NC(=O)[C@H]([C@@H](C)O)NC(=O)[C@H](CC(=O)O)NC(=O)CNC(=O)[C@H](CCCNC(=N)N)NC(=O)[C@@H]2CCCN2C(=O)[C@H](CC(=O)O)NC(=O)[C@@H](NC(=O)[C@H](CCCCN)NC(=O)[C@H](CCCCN)NC(=O)[C@@H](N)CCCCN)CCSCC(=O)NCC[C@@H](C(=O)O)NC1=O [Cyclic peptide 144, KKK-(Hcy)-DPRGDTFA(Dab(acetyl))] (H-KKK[hCys]DPRGDTFA[Dab]-OH; linker 4-13 via X2) |  | < 50 nM |  | A (The residual rate of the cyclic peptide is 70% or more.)

Further lines, with some results ahead:

Row | Kd [1, 3] | Kd [1, 4] | SMILES | Performance evaluation: Stability (residual rate of cyclic peptide after alkali treatment) [2] | Stability (molecule stability, residual rate of the cyclic peptide rank) [2]
7 |  | 50 to 100 nM | CC(C)[C@@H]1NC(=O)[C@@H](NC(=O)[C@H](CCCCN)NC(=O)[C@H](CCCCN)NC(=O)[C@@H](N)CCCCN)CCSCC(=O)NCC[C@@H](C(=O)O)NC(=O)[C@H]([C@@H](C)O)NC(=O)[C@H](Cc2ccccc2)NC(=O)[C@H]([C@@H](C)O)NC(=O)[C@H](CC(=O)O)NC(=O)CNC(=O)[C@H](CCCNC(=N)N)NC(=O)[C@@H]2CCCN2C1=O [Cyclic peptide 154, KKK-(Hcy)-VPRGDTFT(Dab(acetyl))] (H-KKK[hCys]VPRGDTFT[Dab]-OH; linker 4-13 via X2) |  | A (The residual rate of the cyclic peptide is 70% or more.)
8 | < 50 nM |  | CC(C)[C@@H]1NC(=O)[C@@H](NC(=O)[C@H](C)NC(=O)[C@H](CCCCN)NC(=O)[C@H](CCCCN)NC(=O)[C@@H](N)CCCCN)CCSCC(=O)NCC[C@@H](C(=O)NCC(=O)O)NC(=O)[C@H](C)NC(=O)[C@H](Cc2ccccc2)NC(=O)[C@H](CO)NC(=O)[C@H](CC(=O)O)NC(=O)CNC(=O)[C@H](CCCNC(=N)N)NC(=O)[C@@H]2CCCN2C1=O [Cyclic peptide 97, KKKA-(Hcy)-VPRGDSFA(Dab(acetyl))G] (H-KKKA[hCys]VPRGDSFA[Dab]G-OH; linker 5-14 via X2) | A (The residual rate of the cyclic peptide is 70% or more.) | 
9 | < 50 nM |  | CC[C@H](C)[C@@H]1NC(=O)[C@@H](NC(=O)CNC(=O)[C@H](CCCCN)NC(=O)[C@H](CCCCN)NC(=O)[C@@H](N)CCCCN)CCSCC(=O)NCC[C@@H](C(=O)NCC(=O)O)NC(=O)[C@H](CCCNC(=N)N)NC(=O)[C@H](Cc2ccccc2)NC(=O)[C@H]([C@@H](C)O)NC(=O)[C@H](CC(=O)O)NC(=O)CNC(=O)[C@H](CCCNC(=N)N)NC(=O)[C@@H]2CCCN2C1=O [Cyclic peptide 55, KKKG-(Hcy)-IPRGDTFR(Dab(acetyl))G] (H-KKKG[hCys]IPRGDTFR[Dab]G-OH; linker 5-14 via X2) | A (The residual rate of the cyclic peptide is 70% or more.) | 
10 | 50 to 100 nM |  | CC[C@H](C)[C@@H]1NC(=O)[C@@H](NC(=O)[C@H](CCCCN)NC(=O)[C@H](CCCCN)NC(=O)[C@@H](N)CCCCN)CNC(=O)CSCC[C@@H](C(=O)O)NC(=O)[C@H](CCCNC(=N)N)NC(=O)[C@H](Cc2ccccc2)NC(=O)[C@H](CC(N)=O)NC(=O)[C@H](CC(=O)O)NC(=O)CNC(=O)[C@H](CCCNC(=N)N)NC(=O)[C@@H]2CCCN2C1=O [Cyclic peptide 12, KKK(Dap(acetyl))IPRGDNFR-(Hcy)] (H-KKK[Dap]IPRGDNFR[hCys]-OH; linker 4-13 via X1) | B (The residual rate of the cyclic peptide is 50% or more and less than 70%.) | 
11 |  | < 50 nM | CC(C)[C@@H]1NC(=O)[C@@H](NC(=O)[C@H](C)NC(=O)[C@H](CCCCN)NC(=O)[C@H](CCCCN)NC(=O)[C@@H](N)CCCCN)CCSCC(=O)NCCCC[C@@H](C(=O)N[C@@H](C)C(=O)O)NC(=O)[C@H](C)NC(=O)[C@H](Cc2ccccc2)NC(=O)[C@H]([C@@H](C)O)NC(=O)[C@H](CC(=O)O)NC(=O)CNC(=O)[C@H](CCCNC(=N)N)NC(=O)[C@@H]2CCCN2C1=O [Cyclic peptide 121, KKKA-(Hcy)-VPRGDTFA(Lys(acetyl))A] (H-KKKA[hCys]VPRGDTFAKA-OH; linker 5-14 via X2) |  | A (The residual rate of the cyclic peptide is 70% or more.)
12 | < 50 nM |  | CC[C@H](C)[C@@H]1NC(=O)[C@@H](NC(=O)[C@H](CCCCN)NC(=O)[C@H](CCCCN)NC(=O)[C@@H](N)CCCCN)CCSCC(=O)NCC[C@@H](C(=O)N[C@@H](C)C(=O)O)NC(=O)[C@H](CCCNC(=N)N)NC(=O)[C@H](Cc2ccccc2)NC(=O)[C@H](CC(N)=O)NC(=O)[C@H](CC(=O)O)NC(=O)CNC(=O)[C@H](CCCNC(=N)N)NC(=O)[C@@H]2CCCN2C1=O [Cyclic peptide 3, KKK-(Hcy)-IPRGDNFR(Dab(acetyl))A] (H-KKK[hCys]IPRGDNFR[Dab]A-OH; linker 4-13 via X2) | A (The residual rate of the cyclic peptide is 70% or more.) | 
13 | 50 to 100 nM |  | C[C@H](NC(=O)[C@@H]1CCNC(=O)CSCC[C@H](NC(=O)[C@H](CCCCN)NC(=O)[C@H](CCCCN)NC(=O)[C@@H](N)CCCCN)C(=O)N[C@@H](CC(=O)O)C(=O)N2CCC[C@H]2C(=O)N[C@@H](CCCNC(=N)N)C(=O)NCC(=O)N[C@@H](CC(=O)O)C(=O)N[C@@H](CC(N)=O)C(=O)N[C@@H](Cc2ccccc2)C(=O)N[C@@H](CCCNC(=N)N)C(=O)N1)C(=O)O [Cyclic peptide 22, KKK-(Hcy)-DPRGDNFR(Dab(acetyl))A] (H-KKK[hCys]DPRGDNFR[Dab]A-OH; linker 4-13 via X2) | A (The residual rate of the cyclic peptide is 70% or more.) | 
14 | 50 to 100 nM |  | CC[C@H](C)[C@@H]1NC(=O)[C@@H](NC(=O)[C@H](CCCCN)NC(=O)[C@H](CCCCN)NC(=O)[C@@H](N)CCCCN)CCSCC(=O)NCC[C@@H](C(=O)N[C@@H](C)C(=O)O)NC(=O)[C@H](Cc2ccccc2)NC(=O)[C@H](CC(N)=O)NC(=O)[C@H](CC(=O)O)NC(=O)CNC(=O)[C@H](CCCNC(=N)N)NC(=O)[C@@H]2CCCN2C1=O [Cyclic peptide 10, KKK-(Hcy)-IPRGDNF(Dab(acetyl))A] (H-KKK[hCys]IPRGDNF[Dab]A-OH; linker 4-12 via X2) | A (The residual rate of the cyclic peptide is 70% or more.) | 
